# Values joined by “and” are separate entries in the source; they are usually repeats but may differ in a detail not shown here. Identical values can stand only once.
# Assay: Repeated-treatment efficacy for removing an intravenous dose of 238Pu (excretion, tissue retention, clinical observations), female and male arms
# Type: in vivo, Swiss-Webster mice
# Settings: for % Recovered Dose-Female Animals-Urine per Day-Day 11 Necropsy: animal group H
# Procedure: The objective of this study was to characterize the efficacy of 3,4,3-L1(1,2-HOPO) at enhancing elimination from an internal plutonium burden in female and male Swiss-Webster mice administered a soluble citrate complex of ^238Pu and treated multiple times, starting at 24 hours after the exposure. Efficacy was evaluated by comparing the tissue contents, urinary and fecal excretions of ^238Pu in treated animals versus untreated animals.
# The medical countermeasure 3,4,3-L1(1,2-HOPO) was administered parenterally (ip) or orally (po) via consecutive injections or gavages (six daily or twelve twice daily) starting at 24 hours post contamination at the following four selected doses: 30 μmol/kg ip, 150 μmol/kg po, 300 μmol/kg po, and 600 μmol/kg po (equivalent to respective approximate human doses range of […], using the accepted conversion system of mouse doses into human equivalent doses—HED—based on body surface area). Oral doses also included the permeability enhancer selected during formulation development work.
# • Challenge isotope: ^238Pu • Challenge dose: 25 nCi (i.e., approximately 0.8 μCi/kg) • Route of contamination: Intravenous (iv) tail-vein • Route of treatment: Intraperitoneal Injection (ip) or Oral (po) • Frequency of treatment: Multiple (once- or twice-daily for 6 days) doses, starting 24 hr postcontamination • Treatment dose calculation: Dose calculations (mg/kg or μmol/kg) for the decorporation agent were based on the individual body weight measured after contamination. • Study Duration: 11 days, in-life
# c. […] Test article and control dose formulations were prepared within 1 day of dose administration, by weighing out the appropriate amount of test article, dispersing in vehicle. For ip solutions, the test article was used alone, while for oral suspensions, a mixture of test article and excipient (90:10, w:w) was used. The pH was adjusted to 7.0-7.4 for ip administration and 5.0-5.5 for oral administration with sterile NaOH. Dose formulations were prepared at room temperature and filter-sterilized. • Storage: 2-8° C.; refrigerated; protected from light. • Characterization: The concentration of each test article formulation was verified by high-performance liquid chromatography-mass spectrometry. • Test Article Handling: Test, reference, and control article formulations were handled with the use of eye protection, gloves, and a protective laboratory coat. • Correct Dose Assurance: The test article was weighed with calibrated balances. The administration of each dose formulation was properly documented, and the amount administered to each animal recorded.
# e. Experimental Procedures (In-Life Evaluations and Euthanasia) • Contamination: Single administration by intravenous (iv) tail-vein injection (0.2 mL injection volume) under isoflurane anesthesia. Three standard 0.2 mL injections were performed into polyethylene bottles and pre-loaded with aliquots of concentrated nitric acid on each injection day. Six female and six male mice were culled for necropsy 1 hr post-contamination and were used as standards. A11 standards were processed and counted together with the final samples to allow verification of the contamination dose. • Dose Administration: Single administration by intraperitoneal injection (ip) or oral gavage (po) under isoflurane anesthesia. • Mortality/Morbidity: Assessed at least once daily. • Clinical Observations: Recorded once daily (4 hr post-dose on day of treatment), or more often as clinical signs warranted. […]
smiles,measurement,setting,value
"O=C(NCCCN(CCCCN(CCCNC(=O)c1cccc(=O)n1O)C(=O)c1cccc(=O)n1O)C(=O)c1cccc(=O)n1O)c1cccc(=O)n1O [3,4,3-L1(1,2-HOPO)]",% Recovered Dose-Female Animals-Feces per Day-Day 7 Necropsy,"animal group B, day 1, female mice",9.41%
same,% Recovered Dose-Female Animals-Feces per Day-Day 7 Necropsy,"animal group B, day 2, female mice",8.35%
same,% Recovered Dose-Female Animals-Feces per Day-Day 7 Necropsy,"animal group B, day 3, female mice",2.59%
same,% Recovered Dose-Female Animals-Feces per Day-Day 7 Necropsy,"animal group B, day 4, female mice",1.99%
same,% Recovered Dose-Female Animals-Feces per Day-Day 7 Necropsy,"animal group B, day 5, female mice",2.39%
same,% Recovered Dose-Female Animals-Feces per Day-Day 7 Necropsy,"animal group B, day 6, female mice",2.12%
same,% Recovered Dose-Female Animals-Feces per Day-Day 7 Necropsy,"animal group B, day 7, female mice",1.74%
same,% Recovered Dose-Female Animals-Feces per Day-Day 7 Necropsy,"animal group C, day 1, female mice, listed as 3,4,3-LI(1,2-HOPO)",11.51% and 5.30% and 8.74% and 7.20%
same,% Recovered Dose-Female Animals-Feces per Day-Day 7 Necropsy,"animal group C, day 2, female mice, listed as 3,4,3-LI(1,2-HOPO)",13.77% and 8.33% and 12.44% and 14.41%
same,% Recovered Dose-Female Animals-Feces per Day-Day 7 Necropsy,"animal group C, day 3, female mice, listed as 3,4,3-LI(1,2-HOPO)",4.51% and 3.49% and 4.66% and 4.88%
same,% Recovered Dose-Female Animals-Feces per Day-Day 7 Necropsy,"animal group C, day 4, female mice, listed as 3,4,3-LI(1,2-HOPO)",3.35% and 3.00% and 3.74% and 4.08%
same,% Recovered Dose-Female Animals-Feces per Day-Day 7 Necropsy,"animal group C, day 5, female mice, listed as 3,4,3-LI(1,2-HOPO)",2.71% and 2.82% and 2.30% and 2.85%
same,% Recovered Dose-Female Animals-Feces per Day-Day 7 Necropsy,"animal group C, day 6, female mice, listed as 3,4,3-LI(1,2-HOPO)",2.52% and 2.18% and 2.39% and 3.01%
same,% Recovered Dose-Female Animals-Feces per Day-Day 7 Necropsy,"animal group C, day 7, female mice, listed as 3,4,3-LI(1,2-HOPO)",2.15% and 1.62% and 1.98% and 2.66%
same,% Recovered Dose-Female Animals-Feces per Day-Day 7 Necropsy,"animal group E, day 1, female mice, listed as 3,4,3-LI(1,2-HOPO)",6.10% and 10.77% and 13.26% and 10.08%
same,% Recovered Dose-Female Animals-Feces per Day-Day 7 Necropsy,"animal group E, day 2, female mice, listed as 3,4,3-LI(1,2-HOPO)",8.15% and 10.30% and 9.61% and 15.30%
same,% Recovered Dose-Female Animals-Feces per Day-Day 7 Necropsy,"animal group E, day 3, female mice, listed as 3,4,3-LI(1,2-HOPO)",2.89% and 5.25% and 5.53% and 2.67%
same,% Recovered Dose-Female Animals-Feces per Day-Day 7 Necropsy,"animal group E, day 4, female mice, listed as 3,4,3-LI(1,2-HOPO)",2.76% and 3.97% and 4.52% and 2.90%
same,% Recovered Dose-Female Animals-Feces per Day-Day 7 Necropsy,"animal group E, day 5, female mice, listed as 3,4,3-LI(1,2-HOPO)",1.35% and 1.95% and 2.80% and 2.17%
same,% Recovered Dose-Female Animals-Feces per Day-Day 7 Necropsy,"animal group E, day 6, female mice, listed as 3,4,3-LI(1,2-HOPO)",1.90% and 1.34% and 2.01% and 2.18%
same,% Recovered Dose-Female Animals-Feces per Day-Day 7 Necropsy,"animal group E, day 7, female mice, listed as 3,4,3-LI(1,2-HOPO)",2.23% and 1.29% and 1.91% and 2.16%
same,% Recovered Dose-Female Animals-Feces per Day-Day 7 Necropsy,"animal group F, day 1, female mice, listed as 3,4,3-LI(1,2-HOPO)",9.32% and 9.52% and 7.17% and 5.19%
same,% Recovered Dose-Female Animals-Feces per Day-Day 7 Necropsy,"animal group F, day 2, female mice, listed as 3,4,3-LI(1,2-HOPO)",8.03% and 12.87% and 9.08% and 6.87%
same,% Recovered Dose-Female Animals-Feces per Day-Day 7 Necropsy,"animal group F, day 3, female mice, listed as 3,4,3-LI(1,2-HOPO)",2.78% and 4.30% and 4.68% and 2.63%
same,% Recovered Dose-Female Animals-Feces per Day-Day 7 Necropsy,"animal group F, day 4, female mice, listed as 3,4,3-LI(1,2-HOPO)",2.68% and 3.98% and 3.14% and 2.89%
same,% Recovered Dose-Female Animals-Feces per Day-Day 7 Necropsy,"animal group F, day 5, female mice, listed as 3,4,3-LI(1,2-HOPO)",2.30% and 3.01% and 3.85% and 3.00%
same,% Recovered Dose-Female Animals-Feces per Day-Day 7 Necropsy,"animal group F, day 6, female mice, listed as 3,4,3-LI(1,2-HOPO)",2.40% and 2.04% and 2.26% and 1.91%
same,% Recovered Dose-Female Animals-Feces per Day-Day 7 Necropsy,"animal group F, day 7, female mice, listed as 3,4,3-LI(1,2-HOPO)",1.39% and 1.59% and 2.15% and 2.13%
same,% Recovered Dose-Female Animals-Urine per Day-Day 11 Necropsy,"day 1, female mice, listed as 3,4,3-LI(1,2-HOPO)",9.33% and 10.42% and 5.66% and 9.35% and 11.13% and 9.41% and 6.93% and 9.39%
same,% Recovered Dose-Female Animals-Urine per Day-Day 11 Necropsy,"day 2, female mice, listed as 3,4,3-LI(1,2-HOPO)",3.78% and 5.22% and 5.30% and 4.96% and 5.23% and 5.12% and 3.93% and 5.10%
same,% Recovered Dose-Female Animals-Urine per Day-Day 11 Necropsy,"day 3, female mice, listed as 3,4,3-LI(1,2-HOPO)",4.12% and 4.15% and 6.39% and 5.55% and 5.41% and 4.29% and 3.92% and 3.16%
same,% Recovered Dose-Female Animals-Urine per Day-Day 11 Necropsy,"day 4, female mice, listed as 3,4,3-LI(1,2-HOPO)",2.95% and 3.74% and 4.22% and 3.34% and 3.22% and 4.38% and 2.99% and 5.19%
same,% Recovered Dose-Female Animals-Urine per Day-Day 11 Necropsy,"day 5, female mice, listed as 3,4,3-LI(1,2-HOPO)",3.24% and 2.72% and 3.06% and 2.44% and 3.11% and 2.27% and 1.41% and 2.10%
same,% Recovered Dose-Female Animals-Urine per Day-Day 11 Necropsy,"day 6, female mice, listed as 3,4,3-LI(1,2-HOPO)",1.23% and 2.05% and 2.60% and 1.54% and 1.89% and 1.51% and 0.91% and 1.79%
same,% Recovered Dose-Female Animals-Urine per Day-Day 11 Necropsy,"day 7, female mice, listed as 3,4,3-LI(1,2-HOPO)",1.33% and 1.66% and 2.35% and 1.27% and 1.38% and 1.35% and 1.24% and 1.89%

# From patent publication US11684614B2, “Formulations of hydroxypyridonate actinide/lanthanide decorporation agents” (priority 2017, dated 2023)
